One assay relates to K562 (BCR-ABL+) cells. The assay is described as follows: CCK-8 proliferation inhibition, K562 cells.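 Further: Ten-point threefold dilution series starting at 10 µM, absorbance at 450 nm after 2 h with CCK-8, DMSO as negative control.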 Type of assay: cell-based, human. Particulars: Homo sapiens, K562, 48 h, CCK-8, 48 hours of drug treatment; read-out: Proliferative inhibitory activity (IC50, nM) K562 (BCR-ABL+).
A further assay concerns U937 (BCR-ABL-) cells. The experiment in a line: CCK-8 proliferation inhibition, U937 cells.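 Further: Ten-point threefold dilution series, absorbance at 450 nm after 2 h with CCK-8 reagent, DMSO as negative control.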 Type of assay: cell-based, human. Particulars: Homo sapiens, U-937; CCK-8, 48 hours of drug treatment, highest concentration 10 μM; read-out: Proliferative inhibitory activity (IC50, nM) U937 (BCR-ABL-).
In the next assay the test system is HEK293 (BCR-ABL-) cells. The assay is described as follows: CCK-8 proliferation inhibition, HEK293 cells.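 Further: Ten-point threefold dilution series starting at 10 µM, CCK-8 absorbance at 450 nm read after 2 h reagent incubation, DMSO-treated cells as negative control.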 Conditions: Homo sapiens, HEK293, 48 h, read-out: Proliferative inhibitory activity (IC50, nM) HEK293 (BCR-ABL-).
The target of a further assay is c-ABL protein (Homo sapiens, UniProt P00519). The experiment in a line: Western blot degradation of c-ABL in K562 cells. Conditions: 16 hours, 1 nM-10 μM. Type of assay: cell-based. Set-up: Western blot was used to detect the expression of BCR-ABL and c-ABL protein in K562 cells; endogenous in cells; host or cells: K562. An outline of the steps: (§1)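 Lysates were normalized by Bradford and run on SDS-PAGE with nitrocellulose transfer. DC50 was derived from band intensities by non-linear regression.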
c-ABL protein, sequence (P00519 whole entry): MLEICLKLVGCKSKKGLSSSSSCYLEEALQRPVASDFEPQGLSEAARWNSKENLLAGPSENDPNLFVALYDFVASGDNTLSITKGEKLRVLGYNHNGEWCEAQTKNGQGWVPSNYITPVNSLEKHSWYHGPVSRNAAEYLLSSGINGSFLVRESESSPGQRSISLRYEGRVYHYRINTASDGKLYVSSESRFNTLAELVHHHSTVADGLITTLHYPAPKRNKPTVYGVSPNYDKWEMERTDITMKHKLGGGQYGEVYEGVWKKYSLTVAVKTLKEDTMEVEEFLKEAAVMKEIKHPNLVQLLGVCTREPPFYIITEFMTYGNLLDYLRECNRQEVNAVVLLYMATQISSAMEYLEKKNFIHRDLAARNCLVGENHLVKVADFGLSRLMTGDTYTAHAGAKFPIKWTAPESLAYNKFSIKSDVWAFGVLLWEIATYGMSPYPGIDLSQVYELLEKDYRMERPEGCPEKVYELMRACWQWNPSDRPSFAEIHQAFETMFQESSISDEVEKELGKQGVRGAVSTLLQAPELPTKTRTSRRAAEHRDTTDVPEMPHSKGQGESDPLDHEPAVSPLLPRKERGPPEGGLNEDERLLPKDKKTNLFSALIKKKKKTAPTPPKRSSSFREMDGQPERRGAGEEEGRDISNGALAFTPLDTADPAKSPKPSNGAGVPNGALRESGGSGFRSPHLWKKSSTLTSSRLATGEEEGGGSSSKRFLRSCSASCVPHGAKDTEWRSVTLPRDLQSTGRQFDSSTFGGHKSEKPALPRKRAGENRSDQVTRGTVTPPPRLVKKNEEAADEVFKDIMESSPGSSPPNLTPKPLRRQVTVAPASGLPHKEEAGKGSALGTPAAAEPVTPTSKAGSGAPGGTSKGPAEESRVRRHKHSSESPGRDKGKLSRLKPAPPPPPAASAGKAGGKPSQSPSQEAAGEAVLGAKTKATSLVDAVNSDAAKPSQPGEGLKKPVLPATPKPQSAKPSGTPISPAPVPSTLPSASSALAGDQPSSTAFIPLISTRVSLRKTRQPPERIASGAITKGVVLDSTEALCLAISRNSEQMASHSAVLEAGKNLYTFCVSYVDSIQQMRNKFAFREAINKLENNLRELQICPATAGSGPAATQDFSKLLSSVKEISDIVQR

The target in the next assay is BCR-ABL protein (Homo sapiens, UniProt P00519). The experiment in a line: Western blot degradation of BCR-ABL in K562 cells. The class given is cell-based. Set-up: Western blot was used to detect the expression of BCR-ABL and c-ABL protein in K562 cells; BCR (fusion partner, P11274); endogenous in cells; host or cells: K562; the other entry of the earlier key: BCR (P11274, Breakpoint cluster region protein). Particulars: 16 hours, 1 nM-10 μM. An outline of the steps: as §1
BCR-ABL protein, sequence (P00519 with tags, fused parts or gaps): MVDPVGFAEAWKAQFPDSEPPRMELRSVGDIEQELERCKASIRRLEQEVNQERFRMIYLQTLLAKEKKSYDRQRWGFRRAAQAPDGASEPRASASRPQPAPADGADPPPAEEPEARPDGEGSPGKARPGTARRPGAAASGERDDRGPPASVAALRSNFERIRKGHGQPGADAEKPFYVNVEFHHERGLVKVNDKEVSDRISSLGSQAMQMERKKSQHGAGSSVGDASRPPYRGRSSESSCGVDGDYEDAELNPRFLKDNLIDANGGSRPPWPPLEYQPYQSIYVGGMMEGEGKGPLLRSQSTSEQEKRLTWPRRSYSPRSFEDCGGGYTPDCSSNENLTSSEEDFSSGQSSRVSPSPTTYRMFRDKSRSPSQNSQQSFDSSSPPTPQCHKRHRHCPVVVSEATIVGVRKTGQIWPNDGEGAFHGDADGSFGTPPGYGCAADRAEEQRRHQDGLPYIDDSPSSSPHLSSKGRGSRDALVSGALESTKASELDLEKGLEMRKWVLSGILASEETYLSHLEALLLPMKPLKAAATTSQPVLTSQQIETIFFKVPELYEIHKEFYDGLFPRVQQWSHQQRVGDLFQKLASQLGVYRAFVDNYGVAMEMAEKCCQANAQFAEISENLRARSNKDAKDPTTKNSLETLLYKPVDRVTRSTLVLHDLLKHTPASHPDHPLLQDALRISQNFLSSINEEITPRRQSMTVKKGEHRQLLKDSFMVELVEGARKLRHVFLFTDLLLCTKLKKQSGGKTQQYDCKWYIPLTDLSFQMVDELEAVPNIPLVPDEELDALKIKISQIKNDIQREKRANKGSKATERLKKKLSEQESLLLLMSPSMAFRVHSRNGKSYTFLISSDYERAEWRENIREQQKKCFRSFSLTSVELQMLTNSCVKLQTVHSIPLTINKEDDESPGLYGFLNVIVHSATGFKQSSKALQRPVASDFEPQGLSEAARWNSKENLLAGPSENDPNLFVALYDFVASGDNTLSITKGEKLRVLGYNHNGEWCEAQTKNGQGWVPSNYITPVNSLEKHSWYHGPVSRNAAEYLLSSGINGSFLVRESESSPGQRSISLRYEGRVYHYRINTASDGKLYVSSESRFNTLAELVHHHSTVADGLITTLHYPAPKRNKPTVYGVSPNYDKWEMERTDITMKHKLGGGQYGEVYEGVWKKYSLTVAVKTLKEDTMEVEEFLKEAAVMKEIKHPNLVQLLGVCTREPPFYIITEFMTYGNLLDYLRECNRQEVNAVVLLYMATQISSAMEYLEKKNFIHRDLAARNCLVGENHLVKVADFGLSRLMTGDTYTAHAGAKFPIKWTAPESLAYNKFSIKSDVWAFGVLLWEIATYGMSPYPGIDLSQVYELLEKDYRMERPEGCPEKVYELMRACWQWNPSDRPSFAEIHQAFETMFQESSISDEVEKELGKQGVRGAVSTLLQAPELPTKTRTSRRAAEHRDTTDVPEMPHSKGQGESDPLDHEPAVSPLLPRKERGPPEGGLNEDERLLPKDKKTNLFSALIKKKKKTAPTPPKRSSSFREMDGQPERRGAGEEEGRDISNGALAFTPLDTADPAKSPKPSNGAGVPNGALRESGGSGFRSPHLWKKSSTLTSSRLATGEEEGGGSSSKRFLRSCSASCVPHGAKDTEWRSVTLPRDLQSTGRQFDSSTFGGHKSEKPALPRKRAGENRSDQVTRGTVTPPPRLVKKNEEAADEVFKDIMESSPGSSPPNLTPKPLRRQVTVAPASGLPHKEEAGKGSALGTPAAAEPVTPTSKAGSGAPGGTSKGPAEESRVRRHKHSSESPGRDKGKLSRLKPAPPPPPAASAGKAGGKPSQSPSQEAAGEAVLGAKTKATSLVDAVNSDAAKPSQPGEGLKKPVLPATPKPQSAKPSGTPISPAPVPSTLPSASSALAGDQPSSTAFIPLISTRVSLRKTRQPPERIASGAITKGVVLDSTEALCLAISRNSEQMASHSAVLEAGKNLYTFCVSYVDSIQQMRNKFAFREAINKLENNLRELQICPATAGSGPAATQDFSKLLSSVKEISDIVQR
In general terms: In western blotting, separated proteins are transferred to a membrane and probed.

Molecules are shown by their SMILES. Some results are limits rather than exact numbers.

What is called IC50 is the point on the concentration scale where inhibition reaches its midpoint. One may read the DC50 as the concentration at which degradation of the target reaches its halfway point. For the compound `COc1cc(Nc2c(C#N)cnc3cc(OCCCN4CCN(C(=O)CCC(=O)Nc5cccc6c5CN(C5CCC(=O)NC5=O)C6=O)CC4)c(OC)cc23)c(Cl)cc1Cl` (centres unmarked) [SIAIS164105, 4-(4-(3-((3-cyano-4-((2,4-dichloro-5-methoxyphenyl)amino)-6-methoxyquinolin-7-yl)oxy)propyl)piperazin-1-yl)-N-(2-(2,6-dioxopiperidin-3-yl)-1-oxoisoindolin-4-yl)-4-oxobutanamide], the concentration for half-maximal inhibition (IC50) in the assay with K562 (BCR-ABL+) cells is 459 nM; in the assay on U937 (BCR-ABL-) cells, over 10000 nM; with HEK293 (BCR-ABL-) cells, over 10000 nM. The 50% degradation concentration (DC50) at c-ABL protein and on BCR-ABL protein was 10 to 100 nM in each case.

Regarding `Cc1nc(Nc2ncc(C(=O)Nc3c(C)cccc3Cl)s2)cc(N2CCN(C(=O)CC(=O)Nc3cccc4c3CN(C3CCC(=O)NC3=O)C4=O)CC2)n1` (centres unmarked) [SIAIS164108, N-(2-chloro-6-methylphenyl)-2-((6-(4-(3-((2-(2,6-dioxopiperidin-3-yl)-1-oxoisoindolin-4-yl)amino)-3-oxopropanoyl)piperazin-1-yl)-2-methylpyrimidin-4-yl)amino)thiazole-5-carboxamide], the IC50 in the assay on K562 (BCR-ABL+) cells is 12.2 nM; in the assay on U937 (BCR-ABL-) cells, over 10000 nM; in the assay on HEK293 (BCR-ABL-) cells, over 10000 nM. In addition, the 50% degradation concentration (DC50) at c-ABL protein and on BCR-ABL protein was 10 to 100 nM each time.

For `Cc1nc(Nc2ncc(C(=O)Nc3c(C)cccc3Cl)s2)cc(N2CCN(C(=O)CCC(=O)Nc3cccc4c3CN(C3CCC(=O)NC3=O)C4=O)CC2)n1` (centres unmarked) [SIAIS164109, N-(2-chloro-6-methylphenyl)-2-((6-(4-(4-((2-(2,6-dioxopiperidin-3-yl)-1-oxoisoindolin-4-yl)amino)-4-oxobutanoyl)piperazin-1-yl)-2-methylpyrimidin-4-yl)amino)thiazole-5-carboxamide], the figures for the IC50 with K562 (BCR-ABL+) cells, with U937 (BCR-ABL-) cells and in the assay with HEK293 (BCR-ABL-) cells were 7.08 nM, over 10000 nM and over 10000 nM, respectively. The DC50 on c-ABL protein and on BCR-ABL protein was 100 to 1000 nM each time.

In the case of `Cc1nc(Nc2ncc(C(=O)Nc3c(C)cccc3Cl)s2)cc(N2CCN(C(=O)CCCC(=O)Nc3cccc4c3CN(C3CCC(=O)NC3=O)C4=O)CC2)n1` (centres unmarked) [SIAIS164110, N-(2-chloro-6-methylphenyl)-2-((6-(4-(5-((2-(2,6-dioxopiperidin-3-yl)-1-oxoisoindolin-4-yl)amino)-5-oxopentanoyl)piperazin-1-yl)-2-methylpyrimidin-4-yl)amino)thiazole-5-carboxamide], the IC50 is 1.03 nM in the assay on K562 (BCR-ABL+) cells, over 10000 nM in the assay with U937 (BCR-ABL-) cells and over 10000 nM in the assay on HEK293 (BCR-ABL-) cells. Also, the 50% degradation concentration (DC50) on c-ABL protein and at BCR-ABL protein was 10 to 100 nM throughout.

For the compound `COc1cc(Nc2c(C#N)cnc3cc(OCCCN4CCN(C(=O)CCC(=O)NCCNc5cccc6c5C(=O)N(C5CCC(=O)NC5=O)C6=O)CC4)c(OC)cc23)c(Cl)cc1Cl` (centres unmarked) [SIAIS164136, 4-(4-(3-((3-cyano-4-((2,4-dichloro-5-methoxyphenyl)amino)-6-methoxyquinolin-7-yl)oxy)propyl)piperazin-1-yl)-N-(2-((2-(2,6-dioxopiperidin-3-yl)-1,3-dioxoisoindolin-4-yl)amino)ethyl)-4-oxobutanamide], the IC50 in the assay with K562 (BCR-ABL+) cells was 77.6 nM; with U937 (BCR-ABL-) cells, over 10000 nM; in the assay with HEK293 (BCR-ABL-) cells, over 10000 nM. For the same compound, the DC50 at c-ABL protein and on BCR-ABL protein was 1 to 10 nM in each case.

Turning to `Cc1nc(Nc2ncc(C(=O)Nc3c(C)cccc3Cl)s2)cc(N2CCN(C(=O)CCCCCOCCOCCOCCCCCC(=O)Nc3cccc4c3C(=O)N(C3CCC(=O)NC3=O)C4=O)CC2)n1` (centres unmarked) [SIAIS171114, N-(2-chloro-6-methylphenyl)-2-((6-(4-(6-(2-(2-((6-((2-(2,6-dioxopiperidin-3-yl)-1,3-dioxoisoindolin-4-yl)amino)-6-oxohexyl)oxy)ethoxy)ethoxy)hexanoyl)piperazin-1-yl)-2-methylpyrimidin-4-yl)amino)thiazole-5-carboxamide], the values for the half-inhibitory concentration (IC50) with K562 (BCR-ABL+) cells, with U937 (BCR-ABL-) cells and with HEK293 (BCR-ABL-) cells were 2.57 nM, over 10000 nM and over 10000 nM, respectively. Moreover, the DC50 on c-ABL protein and on BCR-ABL protein was 10 to 100 nM each time.

Turning to `Cc1nc(Nc2ncc(C(=O)Nc3c(C)cccc3Cl)s2)cc(N2CCN(C(=O)CCc3cccc4c3C(=O)N(C3CCC(=O)NC3=O)C4=O)CC2)n1` (centres unmarked) [SIAIS172150, N-(2-chloro-6-methylphenyl)-2-((6-(4-(3-(2-(2,6-dioxopiperidin-3-yl)-1,3-dioxoisoindolin-4-yl)propanoyl)piperazin-1-yl)-2-methylpyrimidin-4-yl)amino)thiazole-5-carboxamide], the 50% inhibitory concentration (IC50) is 2.84 nM with K562 (BCR-ABL+) cells, over 10000 nM with U937 (BCR-ABL-) cells and over 10000 nM in the assay on HEK293 (BCR-ABL-) cells. Also, the 50% degradation concentration (DC50) at c-ABL protein and on BCR-ABL protein was 10 to 100 nM in each case.

As to `Cc1nc(Nc2ncc(C(=O)Nc3c(C)cccc3Cl)s2)cc(N2CCN(C(=O)CCCCNc3cccc4c3CN(C3CCC(=O)NC3=O)C4=O)CC2)n1` (centres unmarked) [SIAIS184052, N-(2-chloro-6-methylphenyl)-2-((6-(4-(5-((2-(2,6-dioxopiperidin-3-yl)-1-oxoisoindolin-4-yl)amino)pentanoyl)piperazin-1-yl)-2-methylpyrimidin-4-yl)amino)thiazole-5-carboxamide], the figures for the IC50 with K562 (BCR-ABL+) cells, in the assay with U937 (BCR-ABL-) cells and with HEK293 (BCR-ABL-) cells were 4.2 nM, over 10000 nM and over 10000 nM, respectively. In addition, the DC50 is 10 to 100 nM at c-ABL protein and 1 to 10 nM on BCR-ABL protein.

For `Cc1nc(Nc2ncc(C(=O)Nc3c(C)cccc3Cl)s2)cc(N2CCN(C(=O)CCCC(=O)Nc3cccc4c3C(=O)N(C3CCC(=O)NC3=O)C4=O)CC2)n1` (centres unmarked) [SIAIS184053, N-(2-chloro-6-methylphenyl)-2-((6-(4-(5-((2-(2,6-dioxopiperidin-3-yl)-1,3-dioxoisoindolin-4-yl)amino)-5-oxopentanoyl)piperazin-1-yl)-2-methylpyrimidin-4-yl)amino)thiazole-5-carboxamide], the IC50 was 16.5 nM in the assay on K562 (BCR-ABL+) cells, over 10000 nM in the assay with U937 (BCR-ABL-) cells and over 10000 nM in the assay with HEK293 (BCR-ABL-) cells. The half-maximal degradation concentration (DC50) on c-ABL protein and at BCR-ABL protein was 10 to 100 nM throughout.

Consider `Cc1nc(Nc2ncc(C(=O)Nc3c(C)cccc3Cl)s2)cc(N2CCN(C(=O)COc3cccc4c3C(=O)N(C3CCC(=O)NC3=O)C4=O)CC2)n1` (centres unmarked) [SIAIS184128, N-(2-chloro-6-methylphenyl)-2-((6-(4-(2-((2-(2,6-dioxopiperidin-3-yl)-1,3-dioxoisoindolin-4-yl)oxy)acetyl)piperazin-1-yl)-2-methylpyrimidin-4-yl)amino)thiazole-5-carboxamide], for which the concentration for half-maximal inhibition (IC50) is 7 nM in the assay on K562 (BCR-ABL+) cells, over 10000 nM in the assay with U937 (BCR-ABL-) cells and over 10000 nM in the assay with HEK293 (BCR-ABL-) cells. In addition, the half-maximal degradation concentration (DC50) on c-ABL protein and at BCR-ABL protein was 1 to 10 nM throughout.

Values taken from patent US11639343B2, “Compounds targeting and degrading BCR-ABL protein and its antitumor application” (ShanghaiTech University, priority 2019, dated 2023).
